Consider 1 molecule from patent US10544126B2, “Sulfonyl piperidine derivatives and their use for treating prokineticin mediated diseases” (TAKEDA PHARMACEUTICAL COMPANY LIMITED, priority 2012, dated 2020).

This assay deals with human PKR1 receptors (Homo sapiens (Human), UniProt Q8TCW9). The assay is described as follows: PKR1 antagonist assay: block of PK1-mediated intracellular calcium release (FLIPR). It is filed as cell-based. Particulars: antagonist activity; RBL2H3 cells expressing human PKR1; stimulation with PK1 at EC80; calcium fluorescence. How it is done: Prokineticin receptor 1 (PKR1) antagonists may be functionally assessed by measurement of change in intracellular calcium levels induced by Gq mediated increase in inositol triphosphate (IP3) levels. The ability of a compound to block the intracellular release of calcium mediated by PK1 in RBL2H3 cells expressing human PKR1 receptors is determined as a measure of the compound's antagonist activity in vitro.
Approximately 10,000 cells per assay well are seeded in normal culture medium in a 384 well plate (Corning). […]
To test for antagonist activity, test compounds at a final concentration range between 0.32 nM-10 μM (diluted in assay buffer) are added to the assay wells and allowed to incubate for 10 minutes prior to stimulation with PK1. After incubation with test compounds the assay plate is placed in a FLIPR Tetra (Molecular Devices) and PK1 (diluted in assay buffer) is added at the determined EC80 concentration (final). Ligand-dependent changes in intracellular calcium levels are determined by measuring changes in fluorescence of the dye at […] following excitation at 485 nm.

pIC50: −log10 of the molar value.

Sequence of human PKR1 receptors (Q8TCW9 whole entry): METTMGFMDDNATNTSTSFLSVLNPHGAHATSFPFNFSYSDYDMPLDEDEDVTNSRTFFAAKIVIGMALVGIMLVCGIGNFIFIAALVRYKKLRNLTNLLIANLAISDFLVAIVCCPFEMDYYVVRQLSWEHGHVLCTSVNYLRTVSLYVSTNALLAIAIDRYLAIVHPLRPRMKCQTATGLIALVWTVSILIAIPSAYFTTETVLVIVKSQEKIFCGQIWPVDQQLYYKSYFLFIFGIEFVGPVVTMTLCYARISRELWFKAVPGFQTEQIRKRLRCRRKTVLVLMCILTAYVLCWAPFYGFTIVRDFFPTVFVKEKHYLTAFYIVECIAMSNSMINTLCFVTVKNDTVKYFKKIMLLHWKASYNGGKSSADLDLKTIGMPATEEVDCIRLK

Turning to `Cc1n[nH]c(C)c1S(=O)(=O)N1CCC(C(C#N)c2ccc(Cl)cc2F)CC1` (stereo not shown) [Example 92, 2-(4-Chloro-2-fluorophenyl)-2-(1-((3,5-dimethyl-1H-pyrazol-4-yl)sulfonyl)piperidin-4-yl)acetonitrile], the pIC50 was 5.73.
